Source: paper PMC5011342, “A high throughput drug screening assay to identify compounds that promote oligodendrocyte differentiation using acutely dissociated and purified oligodendrocyte precursor cells” (BMC Research Notes, 2016)
Like-named read-outs stand apart in the source and are kept apart here.

What was measured:
expanded OPCs = experiment: cells; settings: for 0.1 µM (% DMSO) / 1 µM (% DMSO) / 10 µM (% DMSO): alamarBlue viability of expanded OPCs, relative to DMSO control; for 0.1 µM (% DMSO): compound at 0.1 µM; for 1 µM (% DMSO): compound at 1 µM; for 10 µM (% DMSO): compound at 10 µM; for viability at 0.1 µM / viability at 1 µM / viability at 10 µM: Rattus norvegicus, 72 h
Description: Having established a consistent assay for measuring OL differentiation in vitro, the next step was to utilize this assay to assess the ability of a wide array of compounds to promote OL differentiation. Prior to library screening, we first established the maximum non-toxic dose of each compound in the library. […] Therefore, we added each compound in the NIH clinical collection (NCC) library to OPCs at 10, 1, and 0.1 µM concentrations. Three days later, we assessed viability of the treated cells by measuring AlamarBlue fluorescence, a measure of cell viability (see “Methods” section). […] Appropriately, we established three sets of screening concentrations for library compounds: non-toxic compounds were tested at 10 and 2 µM, slightly toxic compounds (only toxic at 10 µM) were tested at 2 and 0.4 µM, and very toxic compounds were tested at 0.4 and 0.08 µM.
OPCs were expanded in vitro by seeding into PDL-coated tissue culture flasks at 1000–2000 cells/cm^2 in differentiation media supplemented with 10 ng/ml PDGF-AA. Proliferating OPCs were fed every 2–3 days and supplemented with 2–3× concentration of PDGF as needed to prevent OPC differentiation. After 6–7 days of proliferation, OPCs were harvested by trypsinization, plated into PDL-coated 96-well Falcon plates and centrifuged at 200×g to facilitate cell attachment, survival, and even distribution of cells. Expanded OPCs were seeded in differentiation media at 10,000 cells/well and incubated for 2 h at 37 °C, 10 % CO2 prior to addition of compounds. The NCC library was diluted and added to cells at 10, 1, and 0.1 µM; each concentration was tested in quadruplicate. As a positive control for the induction of toxicity, 5 ng/ml tunicamycin was added to 8 wells in each plate. Three days later, a 1:10 dilution of alamarBlue® (AB) was added to each well and cells were incubated 4 h at 37 °C, 10 % CO2. AB fluorescence was measured using a PerkinElmer Victor II fluorescence microplate reader (PerkinElmer, Waltham, MA) with 560 nm excitation/590 nm emission filters. For library screening, the highest concentration of each compound was adjusted to a minimally toxic concentration based on this toxicity data. Compounds were additionally tested at a second concentration that was 1/5th of the top concentration. The final concentration of DMSO in each well was 0.1 %.

[1] = test system: acutely dissociated and purified rat OPCs; experiment: Acute OL differentiation assay (MBP expression/cell, immunofluorescent image quantification); type: cell-based; settings: Rattus norvegicus
Description: In order to identify compounds with the potential to promote OL differentiation in vivo and thereby enhance remyelination, we first wanted to establish an in vitro assay system that would closely mimic conditions in vivo. To do this, we started by using OPCs acutely isolated from postnatal day 6–7 (P6–7) rat brains by O4 immunopanning. […] OPCs were plated directly onto a biological substrate (PDL/laminin) in 96-well view plates at moderate density to allow for sufficient room to expand processes during differentiation. We plated cells in serum-free medium lacking OPC mitogens (no PDGF or FGF) to allow a basal level of OL differentiation to commence, and as a positive control added thyroid hormone (T3, 40 ng/ml) to accelerate differentiation (Fig. 1, flow scheme).
Fig. 1 Flow scheme of the acute OL differentiation assay. a Purified oligodendrocyte precursor cells (OPCs) were cultured from P7 rat cortex and plated into PDL/laminin pre-coated 96-well plates. b One hour later test compounds were added. c OPC cultures with compound were maintained in culture for an additional 4 days. d On the 5th day with compound, cells were fixed and immunostained with anti-MBP antibodies and DAPI. e Images were acquired with automated fluorescence microscopy and scored phenotypically for OL differentiation (see “Methods” section)
To quantify the extent of OL differentiation occurring in treatment conditions, we measured the overall amount of MBP expression/cell (see “Methods” section). Figure 2a depicts the mask created over MBP staining under which the MBP expression was quantified. […]
All animal work was carried out in strict accordance with the recommendations in the Guide for the Care and Use of Laboratory Animals of the National Institutes of Health. The protocol was approved by the Institutional Use and Care and Use Committee at the Molecular Medicine Research Institute (Sunnyvale, CA). Animals used for OPC isolation in these studies were euthanized by decapitation. OPCs from brains of P6-P7 Sprague–Dawley rat pups (Charles River, Wilmington, MA, USA) were enriched by immunopanning as previously described (Dugas et al. 2006). Briefly, single cell suspensions were obtained from papain-digested neonatal brains and depleted of mature glial cells by successive panning with RAN-2- and GalC-coated plates, followed by enrichment for OPCs using O4-coated plates. OPCs were plated in differentiation media (DMEM, 100 U/ml Penicillin/100 µg/ml streptomycin, 2 mM L-glutamine, 1 mM Na pyruvate, 5 µg/ml insulin, 5 µg/ml N-acetyl-L-cysteine, 1× trace elements B,10 ng/ml d-Biotin, 100 µg/ml BSA, 100 µg/ml apo-transferrin, 16 µg/ml putrescine, 60 ng/ml progesterone, 40 ng/ml sodium selenite 5 ng/ml forskolin, 10 ng/ml CNTF, 1 ng/ml NT-3).
Acutely enriched OPCs were plated in differentiation media at 5000 cells/well into PDL/laminin coated 96-well view plates and centrifuged at 200×g to facilitate cell attachment, survival, and even distribution of OPCs. OPCs were pre-incubated for 1–2 h at 37 °C in 10 % CO2, followed by the addition of test compounds in quadruplicate. Controls were added in eight replicate wells, negative control = 0.1 % DMSO; positive control = 40 ng/ml T3. The day of OPC plating was considered DIV0. On DIV4, cells were fixed, immunostained for myelin basic protein (MBP) expression, imaged and quantified as described below.

[2] = test compound at 2 uM, MBP expression relative to quetiapine, NCC library screen, sheet "All OLga data", read-out: 2 uM (% Quet)
[3] = test compound at 10 uM, MBP expression relative to quetiapine, NCC library screen, sheet "All OLga data", read-out: 10 uM (% Quet)
[4] = read-out: 0.1 µM (% DMSO), alamarBlue viability of expanded OPCs, compound at 0.1 µM, sheet All Tox data
[5] = read-out: 1 µM (% DMSO), alamarBlue viability of expanded OPCs, compound at 1 µM, sheet All Tox data
[6] = read-out: 10 µM (% DMSO), alamarBlue viability of expanded OPCs, compound at 10 µM, sheet All Tox data
[7] = 2 uM test compound, relative to quetiapine, sheet "All OLga data", read-out: OL differentiation, 2 uM (% Quet)
[8] = 10 uM test compound, relative to quetiapine, sheet "All OLga data", read-out: OL differentiation, 10 uM (% Quet)
[9] = test compound at 2 uM, NCC library screen, sheet "All OLga data", relative to quetiapine, read-out: 2 uM (% Quet)
[10] = test compound at 10 uM, NCC library screen, sheet "All OLga data", relative to quetiapine, read-out: 10 uM (% Quet)

## CC(=O)OCC[N+](C)(C)C [Acetylcholine]
Expanded OPCs
  0.1 µM (% DMSO): 87.6 % DMSO
  1 µM (% DMSO): 92.6 % DMSO
  10 µM (% DMSO): 87.0 % DMSO
[1]; [2]
  activation at 2 µM: -4.4%
[1]; [3]
  activation at 10 µM: -7.7%

## COc1cc(C)c(/C=C/C(C)=C/C=C/C(C)=C/C(=O)O)c(C)c1C [Acitretin]
Expanded OPCs
  0.1 µM (% DMSO): 101.2 % DMSO
  1 µM (% DMSO): 141.3 % DMSO
  10 µM (% DMSO): 148.0 % DMSO
[1]; [2]
  activation at 2 µM: 68.7%
[1]; [3]
  activation at 10 µM: 51.4%

## CC(=O)Nc1ccc(CC(=O)O)cc1 [Actarit]
Expanded OPCs; [4]
  viability at 0.1 µM: 96.4%
Expanded OPCs; [5]
  viability at 1 µM: 104%
Expanded OPCs; [6]
  viability at 10 µM: 102%
[1]; [7]
  activation at 2 µM: 4.4%
[1]; [8]
  activation at 10 µM: -11.3%

## Nc1nc2c(ncn2COCCO)c(=O)[nH]1 [Acyclovir]
Expanded OPCs
  0.1 µM (% DMSO): 98.2 % DMSO
  1 µM (% DMSO): 90.8 % DMSO
  10 µM (% DMSO): 91.7 % DMSO
[1]; [2]
  activation at 2 µM: 21.2%
[1]; [3]
  activation at 10 µM: 4.3%

## Nc1ncnc2c1ncn2[C@@H]1O[C@H](CO)[C@@H](O)[C@H]1O [Adenosine]
Expanded OPCs; read-out: 0.1 µM (% DMSO), alamarBlue viability, NCC library compound at 0.1 µM, sheet "All Tox data"
  viability at 0.1 µM: 88.5%
Expanded OPCs; read-out: 1 µM (% DMSO), alamarBlue viability, NCC library compound at 1 µM, sheet "All Tox data"
  viability at 1 µM: 81.3%
Expanded OPCs; read-out: 10 µM (% DMSO), alamarBlue viability, NCC library compound at 10 µM, sheet "All Tox data"
  viability at 10 µM: 80.5%
[1]; [9]
  activation at 2 µM: 3.3%
[1]; [10]
  activation at 10 µM: -9.9%

## CCCSc1ccc2nc(NC(=O)OC)[nH]c2c1 [Albendazole]
Expanded OPCs
  0.1 µM (% DMSO): 55.7 % DMSO
  1 µM (% DMSO): 57.4 % DMSO
  10 µM (% DMSO): 58.6 % DMSO
[1]; read-out: 0.4 uM (% Quet)
  activation at 0.4 µM: -27.1%
[1]; read-out: 2 uM (% Quet)
  activation at 2 µM: -112%

## COc1cc2nc(N(C)CCCNC(=O)C3CCCO3)nc(N)c2cc1OC (stereo not drawn) [Alfuzosin]
Expanded OPCs; [4]
  viability at 0.1 µM: 90.1%
Expanded OPCs; [5]
  viability at 1 µM: 89.6%
Expanded OPCs; [6]
  viability at 10 µM: 86.6%
[1]; [7]
  activation at 2 µM: -11.1%
[1]; [8]
  activation at 10 µM: -32.5%

## Oc1ncnc2[nH]ncc12 [Allopurinol]
Expanded OPCs
  0.1 µM (% DMSO): 83.9 % DMSO
  1 µM (% DMSO): 89.7 % DMSO
  10 µM (% DMSO): 89.6 % DMSO
[1]; [9]
  activation at 2 µM: -5.6%
[1]; [10]
  activation at 10 µM: -5.5%

## Cc1[nH]cnc1CN1CCc2c(c3ccccc3n2C)C1=O [Alosetron]
Expanded OPCs; [4]
  viability at 0.1 µM: 106%
Expanded OPCs; [5]
  viability at 1 µM: 91.2%
Expanded OPCs; [6]
  viability at 10 µM: 96.3%
[1]; [7]
  activation at 2 µM: -24%
[1]; [8]
  activation at 10 µM: -21.2%
